One block for each compound: values may come before it.
Key:
Plasmodium falciparum [1] = test: Antimalarial activity against blood stage forms of Plasmodium falciparum 3D7 infected in human erythrocytes; assay type: functional, organism-based
[2] = Inhibition of Plasmodium falciparum recombinant NDH2 expressed in Escherichia coli F571 using decyclubiquinone as substrate at 1 min by spectrophotometry
Plasmodium falciparum [3] = test: Antimalarial activity against […]-resistant Plasmodium falciparum TM90C2B containing cytochrome-b Y268S mutant; assay type: functional, organism-based
[4] = Inhibition of Plasmodium falciparum cytochrome b-c1 complex using decylubiquinol as substrate by spectrophotometry
Plasmodium falciparum [5] = test: Antimalarial activity against chloroquine-resistant Plasmodium falciparum W2; assay type: functional, organism-based
Plasmodium berghei [6] = test: Antimalarial activity against Plasmodium berghei NS infected in CD1 mouse assessed as decrease in parasitemia at 20 mg/kg, po administered using SSV as vehicle measured on day 4; assay type: functional; design: scale not given: the % may be the effect or the level left
Plasmodium berghei [7] = test: Antimalarial activity against Plasmodium berghei NS infected in po dosed CD1 mouse assessed as decrease in parasitemia measured on day 4; assay type: functional; settings: 96 h
HepG2 = test: Cytotoxicity against human HepG2 cells; assay type: cell-based
[8] = Metabolic stability in human liver microsomes assessed as compound remaining at 1 uM after 60 mins; assay type: ADME, Microsome; settings: read-out: Stability
Liver microsomes = test: Half life in human liver microsomes at 1 uM; assay type: ADME, Microsome
[9] = Cmax in rat at 20 mg/kg, po; assay type: ADME, organism-based; design: dose 20 mg/kg, route oral; settings: in vivo
[10] = Tmax in rat at 20 mg/kg, po; assay type: ADME, organism-based; design: dose 20 mg/kg, route oral; settings: in vivo
[11] = Half life in rat at 20 mg/kg, po; assay type: ADME, organism-based; design: dose 20 mg/kg, route oral; settings: in vivo
Rattus norvegicus = test: Volume of distribution in rat at 20 mg/kg, po; assay type: ADME, organism-based; design: dose 20 mg/kg, route oral; settings: in vivo
[12] = AUC (0 to t) in rat at 20 mg/kg, po; assay type: ADME, organism-based; design: dose 20 mg/kg, route oral; settings: plasma
[13] = Total clearance in rat at 20 mg/kg, po; assay type: ADME, organism-based; design: dose 20 mg/kg, route oral; settings: in vivo
Plasmodium berghei [14] = test: Antimalarial activity against Plasmodium berghei NS infected in CD1 mouse assessed as decrease in parasitemia at 20 mg/kg, po administered using DET as vehicle measured on day 4; assay type: functional; design: scale not given: the % may be the effect or the level left

Compound: Cc1c(-c2c(F)cc(-c3ccc(OC(F)(F)F)cc3)cc2F)[nH]c2ccccc2c1=O
IC50 (Plasmodium falciparum [1]): 940 nM

Compound: CCOC(=O)c1c(-c2ccc(-c3ccc(Cl)cc3)cc2)[nH]c2ccccc2c1=O
IC50 (Plasmodium falciparum [1]): 220 nM | IC50 (Plasmodium falciparum [3]): 1150 nM

Compound: O=c1c(CO)c(-c2ccc(-c3ccc(OC(F)(F)F)cc3)cc2)[nH]c2ccccc12
IC50 (Plasmodium falciparum [1]): 162 nM | IC50 [2]: 69 nM | IC50 (Plasmodium falciparum [3]): 361 nM

Compound: Cc1c(-c2ccc(-c3ccc(OC(F)(F)F)cc3)nc2)[nH]c2ccccc2c1=O
IC50 (Plasmodium falciparum [1]): 54 nM | IC50 [2]: 15 nM | IC50 [4]: 15 nM | IC50 (Plasmodium falciparum [3]): 344 nM | IC50 (Plasmodium falciparum [5]): 50 nM | Activity (Plasmodium berghei [6]): 87.5% | ED50 (Plasmodium berghei [7]): 12.8 mg/kg | ED90 (Plasmodium berghei [7]): 27.3 mg/kg | CC50 (HepG2): > 50000 nM | remaining at 1 h, 1 µM [8]: 60% | t1/2 (Liver microsomes): 1.61 h | Cmax [9]: 3700 ng/mL | Tmax [10]: 7 h | half-life [11]: 9.9 h | Vd (Rattus norvegicus): 3.9708 L/kg | AUC(0-t) [12]: 69300 ng·h/mL | CL/F [13]: 4.61 mL/min/kg | Activity (Plasmodium berghei [14]): 100%

Compound: Cc1c(-c2ccc(-c3ccc(OC(F)(F)F)cc3)nc2)[nH]c2ccc(Cl)cc2c1=O
IC50 (Plasmodium falciparum [1]): 298 nM | IC50 (Plasmodium falciparum [3]): 410 nM

Compound: Cc1c(-c2ccc(-c3ccc(OC(F)(F)F)cc3)nc2)[nH]c2ccc(C(F)(F)F)cc2c1=O
IC50 (Plasmodium falciparum [1]): > 1000 nM

Compound: Cc1c(-c2ccc(-c3ccc(OC(F)(F)F)cc3)nc2)[nH]c2cc(F)ccc2c1=O
IC50 (Plasmodium falciparum [1]): 75 nM | IC50 [2]: 4.2 nM | IC50 [4]: 26.8 nM | IC50 (Plasmodium falciparum [5]): 70 nM

Compound: Cc1c(-c2ccc(-c3ccc(OC(F)(F)F)cc3)nc2)[nH]c2cc(F)c(Cl)cc2c1=O
IC50 (Plasmodium falciparum [1]): 390 nM

Compound: Cc1c(-c2ccc(-c3ccc(C(F)(F)F)cc3)nc2)[nH]c2ccccc2c1=O
IC50 (Plasmodium falciparum [1]): 102 nM | IC50 [2]: 13.9 nM | IC50 (Plasmodium falciparum [3]): 314 nM

Compound: COc1cccc(-c2ccc(-c3[nH]c4ccccc4c(=O)c3C)cn2)c1
IC50 (Plasmodium falciparum [1]): 556 nM

Compound: Cc1c(-c2ccc(-c3ccc(OC(F)(F)F)cc3)nc2)[nH]c2cc(O)ccc2c1=O
IC50 (Plasmodium falciparum [1]): 202 nM

Compound: Cc1c(-c2ccc(-c3ccc(OC(F)(F)F)cc3)nc2)[nH]c2c(O)cccc2c1=O
IC50 (Plasmodium falciparum [1]): > 1000 nM

Compound: Cc1c(-c2ccc(-c3ccc(O)cc3)nc2)[nH]c2ccccc2c1=O
IC50 (Plasmodium falciparum [1]): > 1000 nM

Compound: Cc1c(-c2ccc(-c3ccccc3C(F)(F)F)nc2)[nH]c2ccccc2c1=O
IC50 (Plasmodium falciparum [1]): 109 nM | IC50 [2]: 352 nM | IC50 (Plasmodium falciparum [3]): 381 nM | IC50 (Plasmodium falciparum [5]): 88 nM

Compound: Cc1c(-c2ccc(-c3ccccc3F)nc2)[nH]c2ccccc2c1=O
IC50 (Plasmodium falciparum [1]): 151 nM | IC50 [2]: 131 nM | IC50 (Plasmodium falciparum [3]): 324 nM | IC50 (Plasmodium falciparum [5]): 120 nM

Continued, values first:

IC50 (Plasmodium falciparum [1]): > 1000 nM
Compound: Cc1c(-c2ccc(-c3ccc(OCCN4CCOCC4)cc3)nc2)[nH]c2ccccc2c1=O

IC50 (Plasmodium falciparum [1]): 96 nM | IC50 [2]: 8.1 nM
Compound: Cc1c(-c2ccc(-c3ccccc3C(F)(F)F)cc2)[nH]c2ccccc2c1=O

IC50 (Plasmodium falciparum [1]): 213 nM
Compound: Cc1c(-c2ccc(-c3ccc(F)cc3F)cc2)[nH]c2ccccc2c1=O

IC50 (Plasmodium falciparum [1]): 471 nM
Compound: Cc1c(-c2ccc(-c3ccccc3F)cc2)[nH]c2ccccc2c1=O

IC50 (Plasmodium falciparum [1]): 347 nM
Compound: CCOC(=O)c1c(-c2ccc(-c3ccc(OC(F)(F)F)cc3)cc2)[nH]c2ccccc2c1=O

IC50 (Plasmodium falciparum [1]): > 1000 nM
Compound: COc1cccc2[nH]c(-c3ccc(-c4ccc(OC(F)(F)F)cc4)nc3)c(C)c(=O)c12

IC50 (Plasmodium falciparum [1]): > 1000 nM
Compound: COc1ccc2[nH]c(-c3ccc(-c4ccc(OC(F)(F)F)cc4)nc3)c(C)c(=O)c2c1

IC50 (Plasmodium falciparum [1]): > 1000 nM
Compound: Cc1c(-c2ccc(-c3ccc(OC(F)(F)F)cc3)nc2)[nH]c2ccc(OC(F)(F)F)cc2c1=O

IC50 (Plasmodium falciparum [1]): 373 nM
Compound: Cc1c(-c2ccc(-c3ccc(OC(F)(F)F)cc3)nc2)[nH]c2cc(Cl)ccc2c1=O

IC50 (Plasmodium falciparum [1]): > 1000 nM
Compound: Cc1c(-c2ccc(-c3ccc(OC(F)(F)F)cc3)nc2)[nH]c2cc(C(F)(F)F)ccc2c1=O

IC50 (Plasmodium falciparum [1]): > 1000 nM
Compound: Cc1c(-c2ccc(-c3ccc(OC(F)(F)F)cc3)nc2)[nH]c2cc(S(C)(=O)=O)ccc2c1=O

IC50 (Plasmodium falciparum [1]): > 1000 nM
Compound: COc1cccc2c(=O)c(C)c(-c3ccc(-c4ccc(OC(F)(F)F)cc4)nc3)[nH]c12

IC50 (Plasmodium falciparum [1]): 286 nM | IC50 [2]: 2.6 nM
Compound: Cc1c(-c2ccc(-c3ccc(OC(F)(F)F)cc3)nc2)[nH]c2cc(F)cc(F)c2c1=O

IC50 (Plasmodium falciparum [1]): 344 nM
Compound: Cc1c(-c2ccc(-c3ccc(OC(F)(F)F)cc3)nc2)[nH]c2cc(F)c(F)cc2c1=O

IC50 (Plasmodium falciparum [1]): 390 nM
Compound: Cc1c(-c2ccc(-c3ccc(OC(F)(F)F)cc3)nc2)[nH]c2cc(Cl)c(F)cc2c1=O

IC50 (Plasmodium falciparum [1]): 219 nM | IC50 [2]: 88.6 nM
Compound: Cc1c(-c2ccc(-c3ccc(F)cc3F)nc2)[nH]c2ccccc2c1=O

IC50 (Plasmodium falciparum [1]): 280 nM
Compound: Cc1c(-c2ccc(-c3ccc(OC(F)(F)F)cc3)nc2)[nH]c2ccc(O)cc2c1=O

IC50 (Plasmodium falciparum [1]): > 1000 nM
Compound: Cc1c(-c2ccc(-c3cccc(O)c3)nc2)[nH]c2ccccc2c1=O

Source: ChEMBL document CHEMBL2029230, “Identification, design and biological evaluation of heterocyclic quinolones targeting Plasmodium falciparum type II NADH:quinone oxidoreductase (PfNDH2)” (J Med Chem, 2012)
